Data as given in ChEMBL document CHEMBL1138054, “Synthesis, molecular characterization, and biological activity of novel synthetic derivatives of chromen-4-one in human cancer cells” (J Med Chem, 2006).

Tests used:
BT-20 = assay: Antiproliferative activity against human BT20 cell line by MTT assay; assay type: functional, cell-based
PC-3 = assay: Antiproliferative activity against human PC3 cell line by MTT assay; assay type: functional, cell-based
[1] = biological target: RAC-alpha serine/threonine-protein kinase (Homo sapiens, UniProt P31749); assay: Inhibition of Akt by fluorescence polarization assay
RAC-alpha serine/threonine-protein kinase, sequence (P31749 whole entry): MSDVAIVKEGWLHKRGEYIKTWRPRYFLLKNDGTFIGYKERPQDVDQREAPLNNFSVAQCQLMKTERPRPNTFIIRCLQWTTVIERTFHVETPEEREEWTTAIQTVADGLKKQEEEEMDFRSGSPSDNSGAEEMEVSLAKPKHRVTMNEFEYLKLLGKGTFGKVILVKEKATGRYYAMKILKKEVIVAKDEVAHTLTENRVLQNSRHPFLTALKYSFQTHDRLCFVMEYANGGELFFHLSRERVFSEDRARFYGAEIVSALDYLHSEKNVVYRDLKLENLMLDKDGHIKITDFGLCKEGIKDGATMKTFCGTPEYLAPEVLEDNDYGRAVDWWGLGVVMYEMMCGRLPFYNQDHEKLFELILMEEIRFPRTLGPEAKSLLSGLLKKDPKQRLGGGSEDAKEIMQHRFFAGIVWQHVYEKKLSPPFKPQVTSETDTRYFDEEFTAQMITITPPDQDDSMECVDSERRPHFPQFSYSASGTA

COLO357 = assay: Antiproliferative activity against human COLO357 cell line by MTT assay; assay type: functional, cell-based
BXPC-3 = assay: Antiproliferative activity against human BxPC3 cell line by MTT assay; assay type: functional, cell-based

IC50 (BT-20): 46 µM
IC50 (PC-3): 50 µM
IC50 [1]: > 70 µM
IC50 (COLO357): 50 µM
IC50 (BXPC-3): 30 µM
Compound: O=c1c(-c2ccc(O)cc2)coc2cc(O)cc(O)c12 [GENISTEIN]
